Data as given in ChEMBL document CHEMBL1909046, “DrugMatrix in vitro pharmacology data”.

What was measured:
[1] = target: 5-hydroxytryptamine receptor 4 (Cavia porcellus, UniProt O70528); type: cell membranes, Dunkin-Hartley, Striatum, Membrane; conditions: for Ki: read-out: Ki; on all read-outs here: in other assays of this panel Not Active means under 50% inhibition at 10 µM
[2] = target: T1, 3-hydroxy-3-methylglutaryl-coenzyme A reductase (Homo sapiens, UniProt P04035); parameters: species or system Escherichia coli;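 further: enzyme inhibition assay of HMG-CoA reductase using radiolabeled [14C]HMG-CoA as substrate; in other assays of this panel Not Active means under 50% inhibition at 10 µM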
T1 sequence (P04035 whole entry): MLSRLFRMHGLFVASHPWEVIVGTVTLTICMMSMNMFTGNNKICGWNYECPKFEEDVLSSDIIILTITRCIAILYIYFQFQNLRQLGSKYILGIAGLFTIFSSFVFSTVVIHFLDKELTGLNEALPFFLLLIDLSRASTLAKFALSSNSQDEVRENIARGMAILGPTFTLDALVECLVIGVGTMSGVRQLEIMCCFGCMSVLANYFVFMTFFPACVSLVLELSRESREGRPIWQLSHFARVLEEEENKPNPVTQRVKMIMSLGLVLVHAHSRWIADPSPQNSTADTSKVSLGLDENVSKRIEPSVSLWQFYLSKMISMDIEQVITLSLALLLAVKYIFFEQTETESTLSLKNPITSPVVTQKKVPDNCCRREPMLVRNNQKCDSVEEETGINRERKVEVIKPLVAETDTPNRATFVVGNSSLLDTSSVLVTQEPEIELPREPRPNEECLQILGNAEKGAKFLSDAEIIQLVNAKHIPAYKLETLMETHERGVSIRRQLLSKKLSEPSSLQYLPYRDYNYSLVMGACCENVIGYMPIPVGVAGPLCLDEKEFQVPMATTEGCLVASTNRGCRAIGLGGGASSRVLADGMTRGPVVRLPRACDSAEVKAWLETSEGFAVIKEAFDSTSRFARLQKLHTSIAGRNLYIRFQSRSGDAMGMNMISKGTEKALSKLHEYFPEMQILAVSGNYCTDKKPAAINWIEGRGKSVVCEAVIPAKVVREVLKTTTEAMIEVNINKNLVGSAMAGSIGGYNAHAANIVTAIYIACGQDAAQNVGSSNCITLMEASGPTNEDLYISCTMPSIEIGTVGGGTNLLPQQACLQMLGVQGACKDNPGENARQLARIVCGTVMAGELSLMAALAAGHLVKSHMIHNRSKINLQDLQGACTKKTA

Interstitial collagenase = target: T2, Interstitial collagenase (Homo sapiens, UniProt P03956); assay: biochemical; type: tissue-based, Rheumatoid synovial fibroblasts;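 further: MMP-1 enzyme inhibition assay using a peptide substrate; in other assays of this panel Not Active means under 50% inhibition at 10 µM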
T2 sequence (P03956 whole entry): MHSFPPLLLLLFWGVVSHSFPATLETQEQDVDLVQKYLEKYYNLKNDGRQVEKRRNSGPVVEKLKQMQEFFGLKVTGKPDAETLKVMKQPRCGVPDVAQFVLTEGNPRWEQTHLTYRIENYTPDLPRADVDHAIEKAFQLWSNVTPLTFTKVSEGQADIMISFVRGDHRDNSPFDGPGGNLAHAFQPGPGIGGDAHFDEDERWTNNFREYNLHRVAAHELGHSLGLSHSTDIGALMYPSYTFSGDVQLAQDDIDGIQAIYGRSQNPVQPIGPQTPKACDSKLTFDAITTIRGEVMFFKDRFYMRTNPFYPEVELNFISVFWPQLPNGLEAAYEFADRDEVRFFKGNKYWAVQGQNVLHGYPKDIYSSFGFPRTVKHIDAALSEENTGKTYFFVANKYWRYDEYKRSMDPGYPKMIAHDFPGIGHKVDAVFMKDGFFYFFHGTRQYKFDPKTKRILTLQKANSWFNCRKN

Vasopressin V1a receptor = Vasopressin V1a receptor (Homo sapiens, UniProt P37288); type: cell membranes, Membrane; conditions: hek293; further: in other assays of this panel Not Active means under 50% inhibition at 10 µM
[3] = target: 5-hydroxytryptamine receptor 2B (Homo sapiens, UniProt P41595); type: cell membranes, CHO-K1, Membrane; conditions: for Ki: read-out: Ki
[4] = target: Kappa-type opioid receptor (Homo sapiens, UniProt P41145); assay: DRUGMATRIX: Opiate kappa (OP2, KOP) radioligand binding (ligand: [3H] Diprenorphine); type: cell membranes, HEK293, Membrane; conditions: hek293; Not Active = under 50% inhibition at 10 µM
[5] = DRUGMATRIX: Glutamate, Kainate radioligand binding (ligand: [3H] Kainic acid); type: cell membranes, Rattus norvegicus, Wistar, Brain, Membrane; conditions: Not Active = under 50% inhibition at 10 µM

Sequence of 5-hydroxytryptamine receptor 4 (O70528 whole entry): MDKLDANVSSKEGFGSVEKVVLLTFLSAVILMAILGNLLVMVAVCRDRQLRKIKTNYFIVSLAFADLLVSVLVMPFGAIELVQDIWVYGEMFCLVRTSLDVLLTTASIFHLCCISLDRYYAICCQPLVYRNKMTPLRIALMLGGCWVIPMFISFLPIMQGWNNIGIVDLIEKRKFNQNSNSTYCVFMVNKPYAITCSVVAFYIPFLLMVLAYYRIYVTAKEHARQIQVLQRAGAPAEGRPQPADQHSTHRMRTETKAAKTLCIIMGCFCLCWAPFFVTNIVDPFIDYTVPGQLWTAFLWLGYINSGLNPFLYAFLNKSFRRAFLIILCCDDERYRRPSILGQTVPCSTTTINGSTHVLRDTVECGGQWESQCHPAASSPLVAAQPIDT
Sequence of Vasopressin V1a receptor (P37288 whole entry): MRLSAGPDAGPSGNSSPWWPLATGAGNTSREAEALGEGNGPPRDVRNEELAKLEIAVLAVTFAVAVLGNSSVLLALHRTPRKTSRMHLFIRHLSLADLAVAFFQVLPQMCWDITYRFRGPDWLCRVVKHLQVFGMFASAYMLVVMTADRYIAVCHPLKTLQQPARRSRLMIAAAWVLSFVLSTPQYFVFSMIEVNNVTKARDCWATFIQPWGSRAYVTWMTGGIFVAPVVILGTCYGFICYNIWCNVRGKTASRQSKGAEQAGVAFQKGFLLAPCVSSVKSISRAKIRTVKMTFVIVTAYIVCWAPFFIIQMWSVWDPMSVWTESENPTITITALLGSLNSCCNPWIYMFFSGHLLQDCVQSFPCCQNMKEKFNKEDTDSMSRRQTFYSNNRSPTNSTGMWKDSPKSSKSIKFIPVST
Sequence of Kappa-type opioid receptor (P41145 whole entry): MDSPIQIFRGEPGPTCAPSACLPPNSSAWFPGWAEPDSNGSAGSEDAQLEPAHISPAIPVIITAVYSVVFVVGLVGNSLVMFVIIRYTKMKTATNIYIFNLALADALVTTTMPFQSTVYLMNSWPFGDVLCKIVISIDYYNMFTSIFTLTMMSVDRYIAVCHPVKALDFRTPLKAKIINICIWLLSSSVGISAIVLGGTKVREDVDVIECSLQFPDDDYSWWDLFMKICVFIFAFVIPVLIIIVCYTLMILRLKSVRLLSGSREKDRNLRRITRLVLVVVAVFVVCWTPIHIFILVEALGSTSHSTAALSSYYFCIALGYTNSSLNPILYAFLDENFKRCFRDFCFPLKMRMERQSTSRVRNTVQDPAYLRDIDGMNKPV
Sequence of 5-hydroxytryptamine receptor 2B (P41595 whole entry): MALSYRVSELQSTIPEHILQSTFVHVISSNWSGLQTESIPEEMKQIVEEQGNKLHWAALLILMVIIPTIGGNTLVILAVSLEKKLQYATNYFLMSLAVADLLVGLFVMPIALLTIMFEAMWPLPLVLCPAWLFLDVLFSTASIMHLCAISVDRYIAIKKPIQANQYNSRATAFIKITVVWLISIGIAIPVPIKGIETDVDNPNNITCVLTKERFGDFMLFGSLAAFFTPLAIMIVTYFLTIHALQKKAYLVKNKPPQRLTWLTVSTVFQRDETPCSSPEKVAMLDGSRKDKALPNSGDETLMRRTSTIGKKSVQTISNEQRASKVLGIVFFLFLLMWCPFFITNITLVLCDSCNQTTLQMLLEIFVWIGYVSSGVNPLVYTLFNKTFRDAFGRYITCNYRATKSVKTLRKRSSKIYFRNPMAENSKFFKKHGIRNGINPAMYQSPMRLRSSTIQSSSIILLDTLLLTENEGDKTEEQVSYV

CC(C)[C@@]1(NC(=O)[C@@H]2C[C@@H]3c4cccc5[nH]cc(c45)C[C@H]3N(C)C2)O[C@@]2(O)[C@@H]3CCCN3C(=O)[C@H](Cc3ccccc3)N2C1=O.CS(=O)(=O)O [DIHYDROERGOCRISTINE MESYLATE]
4910 nM: IC50 ([1]; read-out: IC50)
819 nM: Ki [1]
Not Active: IC50 [2] | IC50 (Interstitial collagenase) | IC50 (Vasopressin V1a receptor) | IC50 [4] | IC50 [5] | Ki [5]
4.2 nM: Ki [3]
6.6 nM: IC50 ([3]; read-out: IC50)

CC(=O)O[C@@]12CO[C@@H]1C[C@H](O)[C@@]1(C)C(=O)[C@H](O)C3=C(C)[C@@H](OC(=O)[C@H](O)[C@@H](NC(=O)OC(C)(C)C)c4ccccc4)C[C@@](O)([C@@H](OC(=O)c4ccccc4)[C@H]21)C3(C)C.O.O.O [DOCETAXEL]
Not Active: IC50 [1] | IC50 [2] | IC50 (Interstitial collagenase) | IC50 (Vasopressin V1a receptor) | IC50 ([3]; cho-k1) | IC50 [4] | IC50 [5] | Ki [5]

C[C@H]1c2cccc(O)c2C(=O)C2=C(O)[C@]3(O)C(=O)C(C(N)=O)=C(O)[C@@H](N(C)C)[C@@H]3[C@@H](O)[C@@H]21.O [DOXYCYCLINE]
Not Active: IC50 [1] | IC50 [2] | IC50 (Interstitial collagenase) | IC50 (Vasopressin V1a receptor) | IC50 ([3]; cho-k1) | IC50 [4] | IC50 [5] | Ki [5]

O=C(CCCN1CC=C(n2c(=O)[nH]c3ccccc32)CC1)c1ccc(F)cc1 [DROPERIDOL]
854 nM: Ki [3]
1340 nM: IC50 ([3]; read-out: IC50)
3790 nM: IC50 ([1]; read-out: IC50)
Not Active: IC50 [2] | IC50 (Interstitial collagenase) | IC50 (Vasopressin V1a receptor) | IC50 [4] | IC50 [5] | Ki [5]
632 nM: Ki [1]

CC(C)[C@H]1C(=O)N2CCC[C@H]2[C@]2(O)O[C@](NC(=O)[C@@H]3C=C4c5cccc6[nH]cc(c56)C[C@H]4N(C)C3)(C(C)C)C(=O)N12 [ERGOCORNINE]
6.86 nM: Ki [3]
11 nM: IC50 ([3]; read-out: IC50)
Not Active: IC50 [1] | IC50 [2] | IC50 (Interstitial collagenase) | IC50 (Vasopressin V1a receptor) | IC50 [4] | IC50 [5] | Ki [5]

OC(Cn1cncn1)(Cn1cncn1)c1ccc(F)cc1F [FLUCONAZOLE]
Not Active: IC50 [1] | IC50 [2] | IC50 (Interstitial collagenase) | IC50 (Vasopressin V1a receptor) | IC50 ([3]; cho-k1) | IC50 [4] | IC50 [5] | Ki [5]

CC(C)C(=O)Nc1ccc([N+](=O)[O-])c(C(F)(F)F)c1 [FLUTAMIDE]
Not Active: IC50 [2] | IC50 (Interstitial collagenase) | IC50 (Vasopressin V1a receptor) | IC50 ([3]; cho-k1) | IC50 [4] | IC50 [5] | Ki [5]
2260 nM: Ki [1]
13500 nM: IC50 ([1]; read-out: IC50)

N=C(N)NCCN1CCCCCCC1 [GUANETHIDINE]
Not Active: IC50 [1] | IC50 [2] | IC50 (Interstitial collagenase) | IC50 (Vasopressin V1a receptor) | IC50 ([3]; cho-k1) | IC50 [4] | IC50 [5] | Ki [5]

CC1(C)O[C@@H]2C[C@H]3[C@@H]4CCC5=CC(=O)CC[C@]5(C)[C@@]4(F)[C@@H](O)C[C@]3(C)[C@]2(C(=O)CCl)O1 [HALCINONIDE]
Not Active: IC50 [1] | IC50 [2] | IC50 (Interstitial collagenase) | IC50 (Vasopressin V1a receptor) | IC50 ([3]; cho-k1) | IC50 [4] | IC50 [5] | Ki [5]

O=c1[nH]c(=O)n([C@H]2C[C@H](O)[C@@H](CO)O2)cc1I [IDOXURIDINE]
Not Active: IC50 [1] | IC50 [2] | IC50 (Interstitial collagenase) | IC50 (Vasopressin V1a receptor) | IC50 ([3]; cho-k1) | IC50 [4] | IC50 [5] | Ki [5]

CC1Cc2ccccc2N1NC(=O)c1ccc(Cl)c(S(N)(=O)=O)c1 (configuration not stated) [INDAPAMIDE]
Not Active: IC50 [1] | IC50 [2] | IC50 (Interstitial collagenase) | IC50 (Vasopressin V1a receptor) | IC50 ([3]; cho-k1) | IC50 [4] | IC50 [5] | Ki [5]

Nc1nc(N)nc(-c2cc(Cl)ccc2Cl)n1.O=C(O)/C=C\C(=O)O [IRSOGLADINE MALEATE]
Not Active: IC50 [1] | IC50 [2] | IC50 (Interstitial collagenase) | IC50 (Vasopressin V1a receptor) | IC50 ([3]; cho-k1) | IC50 [4] | IC50 [5] | Ki [5]
